{"source": "patent US11292758B2", "about": "“Compounds and methods for delivery of prostacyclin analogs” (United Therapeutics Corporation, priority 2003, dated 2022)", "key": {"Caco-2 cell monolayers": {"test_system": "Caco-2 cell monolayers", "test": "Permeability across Caco-2 cell monolayers", "assay_type": "in vitro ADME", "from_the_text": "(§1) There are two major barriers to deliver treprostinil in the circulatory system. One of these barriers is that treprostinil undergoes a large first pass effect. […] The permeability of treprostinil has been measured across Caco-2 cell monolayers. […] It is believed that the p-glycoprotein efflux pump prevents certain pharmaceutical compounds from traversing the mucosal cells of the small intestine and, therefore, from being absorbed into systemic circulation."}, "[1]": {"test": "First pass effect on circulating through the liver", "assay_type": "in vivo", "from_the_text": "as §1"}, "[2]": {"test": "Skin contact irritation testing", "from_the_text": "In contrast, some of the compounds disclosed herein, generally as prodrugs of treprostinil, are not irritating to the skin. Accordingly, the present compounds are well suited for topical or transdermal administration."}, "[3]": {"conditions": "rat, in vivo"}, "in vivo": {"test": "in vivo", "conditions": "male, Sprague-Dawley, rat"}, "[4]": {"test": "Bioavailability and pharmacokinetics of treprostinil in rats after intravenous, intraportal vein, intraduodenal, intracolonic and oral dosing (Example 1)", "conditions": "rats dosed via the portal vein, 1 mg/kg, before the thirty-minute sample"}, "[5]": {"conditions": "male, Sprague-Dawley, iv, 1 mg/kg"}, "[6]": {"conditions": "1 mg/kg, Average (n = 3) plasma concentrations"}, "[7]": {"conditions": "1 mg/kg, Average plasma concentrations"}, "[8]": {"conditions": "iv, 1 mg/kg, Average (n = 3) plasma concentrations"}, "[9]": {"conditions": "po, 1 mg/kg, Average (n = 3) plasma concentrations"}}, "note": "Where two headings read alike, the source gives them in different places."}
{"smiles": "CCCCC[C@H](O)CC[C@@H]1[C@H]2Cc3cccc(OCC(=O)O)c3C[C@H]2C[C@H]1O", "note": "[Treprostinil, treprostinil]", "values": [{"measurement": "apical to basal transport rate", "setting": "Caco-2 cell monolayers", "result": "1.39e-06", "unit": "cm/s"}, {"measurement": "basal to apical transport rate", "setting": "Caco-2 cell monolayers", "result": "1.23e-05", "unit": "cm/s"}, {"measurement": "absorbed dose left after first pass", "setting": "[1]", "result": "about 40%"}, {"measurement": "treprostinil plasma levels metabolized upon first circulating through the liver", "setting": "[1]", "result": "about 60%"}, {"measurement": "skin irritation upon skin contact", "setting": "[2]", "result": "can be irritating upon skin contact"}, {"measurement": "compound absorbed in the intestine", "setting": "[3]; male, Sprague-Dawley", "result": "approximately 60%"}, {"measurement": "Tmax", "setting": "[3]; male, Sprague-Dawley, 1 mg/kg", "result": 2, "unit": "min"}, {"measurement": "Average (n = 3) plasma concentrations", "setting": "[3]; male, Sprague-Dawley, 1 mg/kg, 360 min", "result": "0.06^λ ng/mL"}, {"measurement": "Average (n = 3) plasma concentrations", "setting": "[3]; male, Sprague-Dawley, 1 mg/kg, 480 min", "result": "0.20^λ ng/mL"}, {"measurement": "CLs", "setting": "[3]; [5]", "result": 88.54, "unit": "mL/min/kg"}, {"measurement": "Volume of Distribution", "setting": "[3]; [5]", "result": 1.98, "unit": "L/kg"}, {"measurement": "distribution and elimination of the compound that occurs by 60 minutes post-dosing", "setting": "[3]; male, Sprague-Dawley, iv, 60 min", "result": "over 90%"}, {"measurement": "Clinical observations", "setting": "[3]; iv, 1 mg/kg", "result": "extreme lethargy"}, {"measurement": "concentration at 360 min", "setting": "in vivo; [6]", "result": 0.89, "unit": "ng/mL"}, {"measurement": "concentration at 480 min", "setting": "in vivo; [6]", "result": 0.9, "unit": "ng/mL"}, {"measurement": "concentration at 2 min", "setting": "in vivo; [7]", "result": 302, "unit": "ng/mL"}, {"measurement": "concentration at 5 min", "setting": "in vivo; [7]", "result": 97.4, "unit": "ng/mL"}, {"measurement": "concentration at 15 min", "setting": "in vivo; [7]", "result": 48, "unit": "ng/mL"}, {"measurement": "concentration at 30 min", "setting": "in vivo; [7]", "result": 21.9, "unit": "ng/mL"}, {"measurement": "concentration at 60 min", "setting": "in vivo; [7]", "result": 11.1, "unit": "ng/mL"}, {"measurement": "concentration at 120 min", "setting": "in vivo; [7]", "result": 3.87, "unit": "ng/mL"}, {"measurement": "concentration at 240 min", "setting": "in vivo; [7]", "result": 2.51, "unit": "ng/mL"}, {"measurement": "concentration at 360 min", "setting": "in vivo; [7]", "result": 4.95, "unit": "ng/mL"}, {"measurement": "concentration at 480 min", "setting": "in vivo; [7]", "result": 5.14, "unit": "ng/mL"}, {"measurement": "Tmax", "setting": "in vivo", "result": "≤ 5", "unit": "min"}, {"measurement": "Vd", "setting": "in vivo; iv, 1 mg/kg", "result": 1.98, "unit": "L/kg"}, {"measurement": "clearance", "setting": "in vivo; iv, 1 mg/kg", "result": 88.5, "unit": "mL/min/kg"}, {"measurement": "concentration at 2 min", "setting": "in vivo; [8]", "result": 1050, "unit": "ng/mL"}, {"measurement": "concentration at 5 min", "setting": "in vivo; [8]", "result": 364, "unit": "ng/mL"}, {"measurement": "concentration at 15 min", "setting": "in vivo; [8]", "result": 131, "unit": "ng/mL"}, {"measurement": "concentration at 30 min", "setting": "in vivo; [8]", "result": 55.6, "unit": "ng/mL"}, {"measurement": "concentration at 60 min", "setting": "in vivo; [8]", "result": 14.4, "unit": "ng/mL"}, {"measurement": "concentration at 120 min", "setting": "in vivo; [8]", "result": 4.45, "unit": "ng/mL"}, {"measurement": "concentration at 240 min", "setting": "in vivo; [8]", "result": 1.09, "unit": "ng/mL"}, {"measurement": "concentration at 360 min", "setting": "in vivo; [8]", "result": 0.5, "unit": "ng/mL"}, {"measurement": "concentration at 480 min", "setting": "in vivo; [8]", "result": 0.3, "unit": "ng/mL"}, {"measurement": "AUC(0-t)", "setting": "in vivo; iv, 1 mg/kg, Average AUC480 min", "result": 188, "unit": "ng·h/mL"}, {"measurement": "Cmax", "setting": "in vivo; iv, 1 mg/kg", "result": 2120, "unit": "ng/mL"}, {"measurement": "AUC(0-t)", "setting": "in vivo; iv, 1 mg/kg, Individual AUC480 min", "result": 172, "unit": "ng·h/mL"}, {"measurement": "Tmax", "setting": "in vivo; iv, 1 mg/kg", "result": 0, "unit": "min"}, {"measurement": "half-life", "setting": "in vivo; iv, 1 mg/kg, T½ (terminal plasma half-life)", "result": 94, "unit": "min"}, {"measurement": "half-life", "setting": "in vivo; iv, 1 mg/kg, half-life of the distribution phase", "result": 10.3, "unit": "min"}, {"measurement": "concentration at 5 min", "setting": "in vivo; [9]", "result": 4.52, "unit": "ng/mL"}, {"measurement": "concentration at 15 min", "setting": "in vivo; [9]", "result": 2.9, "unit": "ng/mL"}, {"measurement": "concentration at 30 min", "setting": "in vivo; [9]", "result": 3.67, "unit": "ng/mL"}, {"measurement": "concentration at 60 min", "setting": "in vivo; [9]", "result": 2.06, "unit": "ng/mL"}, {"measurement": "concentration at 120 min", "setting": "in vivo; [9]", "result": 4.52, "unit": "ng/mL"}, {"measurement": "concentration at 240 min", "setting": "in vivo; [9]", "result": 1.82, "unit": "ng/mL"}, {"measurement": "concentration at 360 min", "setting": "in vivo; [9]", "result": 0.9, "unit": "ng/mL"}, {"measurement": "concentration at 480 min", "setting": "in vivo; [9]", "result": 0.96, "unit": "ng/mL"}, {"measurement": "AUC(0-t)", "setting": "in vivo; po, 1 mg/kg, Average AUC480 min", "result": 17.3, "unit": "ng·h/mL"}, {"measurement": "bioavailability", "setting": "in vivo; po, 1 mg/kg, Average Bioavailability (%) ± SD", "result": "9.2 ± 1.4", "unit": "%"}, {"measurement": "Cmax", "setting": "in vivo; po, 1 mg/kg", "result": 5, "unit": "ng/mL"}, {"measurement": "AUC(0-t)", "setting": "in vivo; po, 1 mg/kg, Individual AUC480 min", "result": 16.6, "unit": "ng·h/mL"}, {"measurement": "bioavailability", "setting": "in vivo; po, 1 mg/kg, Individual Bioavailability", "result": 8.9, "unit": "%"}, {"measurement": "Tmax", "setting": "in vivo; po, 1 mg/kg", "result": 5, "unit": "min"}, {"measurement": "Mortality", "setting": "[4]", "result": "One rat (#123) expired"}]}
